Test results published in patent US6355799B1, “Substituted benzene compounds, process for their preparation, and herbicidal and defoliant compositions containing them” (ISK Americas Incorporated, priority 1997, dated 2002).

Experiments:
Format in all cases: in vivo
[1] = test system: redroot pigweed (Amaranthus retroflexus, AMARE); assay: Pre-emerge test, greenhouse herbicide activity screening; details: pre-emerge, rated 14 days after application, 0 = no damage, 100 = complete death
Method in brief: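 Plants grown in 10 cm pots of sandy loam mix received acetone-dissolved compounds through a moving flat-fan nozzle. Doses ranged from 15 to 1000 g ai/ha. Pre-emerge pots were seeded one day earlier, post-emerge pots 8–21 days earlier. Fourteen days on, each pot was graded 0–100 for damage.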

[2] = test system: field corn (Zea mays L., var. Dekalb 535, CORN); assay: Pre-emerge test, crop safety; details: pre-emerge, rated 14 days after application, 0 = no damage, 100 = complete death
Method in brief: (§1)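 Compounds in acetone were track-sprayed at 187 l/ha, 15–1000 g ai/ha, onto sandy loam pots. Pre-emerge seeds were sown one day before spraying, with surface watering afterwards. Post-emerge plants were at the 2–3 leaf stage and sprayed with 0.25% v/v non-ionic surfactant. Injury was rated 0–100 at 14 days.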

[3] = test system: upland rice (Oryza sp., var. Tebonnet, RICE); assay: Pre-emerge test, crop safety; details: pre-emerge, rated 14 days after application, 0 = no damage, 100 = complete death
Method in brief: as §1

[4] = test system: large crabgrass (Digitaria sanguinalis, DIGSA); assay: Pre-emerge test, greenhouse herbicide activity screening; details: pre-emerge, rated 14 days after application, 0 = no damage, 100 = complete death
Method in brief: (§2)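 Compounds in acetone were track-sprayed at 15-1000 g ai/ha (187 l/ha) on sandy loam pots: pre-emerge one day after seeding, post-emerge at 2-3 leaf stage with 0.25% v/v non-ionic surfactant. Phytotoxicity was rated 14 days later on a 0 (no damage) to 100 (complete death) scale.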

[5] = test system: johnsongrass (Sorghum halepense, SORHA); assay: as above; details: pre-emerge, rated 14 days after application, 0 = no damage, 100 = complete death
Method in brief: as §2

[6] = test system: sicklepod (Cassia obtusifolia, CASOB); assay: as above; details: pre-emerge, rated 14 days after application, 0 = no damage, 100 = complete death
Method in brief: as §2

[7] = test system: velvetleaf (Abutilon theophrasti, ABUTH); assay: as above; details: pre-emerge, rated 14 days after application, 0 = no damage, 100 = complete death
Method in brief: as §2

[8] = test system: barnyardgrass (Echinochloa crus-galli, ECHCG); assay: as above; details: pre-emerge, rated 14 days after application, 0 = no damage, 100 = complete death
Method in brief: as §2

[9] = test system: lambsquarters (Chenopodium album, CHEAL); assay: as above; details: pre-emerge, rated 14 days after application, 0 = no damage, 100 = complete death
Method in brief: as §2

[10] = test system: ivyleaf morningglory (Ipomoea hederacea, IPOHE); assay: as above; details: pre-emerge, rated 14 days after application, 0 = no damage, 100 = complete death
Method in brief: as §2

[11] = test system: green foxtail (Setaria viridis, SETVI); assay: as above; details: pre-emerge, rated 14 days after application, 0 = no damage, 100 = complete death
Method in brief: as §2

[12] = test system: large crabgrass (Digitaria sanguinalis, DIGSA); assay: Post-emerge test, greenhouse herbicide activity screening; details: phytotoxicity rating 0-100 (0 no damage, 100 complete death), 14 days after application
Method in brief: (§3)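 Visual ratings on a 0-100 scale (0 no damage, 100 all plants dead) were taken at 14 days after treatment. Rates of 15-1000 g ai/ha in acetone, 187 l/ha, were sprayed onto soil one day after planting (pre-emerge) or onto 2-3 leaf plants with 0.25% v/v surfactant (post-emerge).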

[13] = test system: johnsongrass (Sorghum halepense, SORHA); assay: as above; details: phytotoxicity rating 0-100 (0 no damage, 100 complete death), 14 days after application
Method in brief: as §3

[14] = test system: sicklepod (Cassia obtusifolia, CASOB); assay: as above; details: phytotoxicity rating 0-100 (0 no damage, 100 complete death), 14 days after application
Method in brief: as §3

[15] = test system: velvetleaf (Abutilon theophrasti, ABUTH); assay: as above; details: phytotoxicity rating 0-100 (0 no damage, 100 complete death), 14 days after application
Method in brief: as §3

[16] = test system: barnyardgrass (Echinochloa crus-galli, ECHCG); assay: as above; details: phytotoxicity rating 0-100 (0 no damage, 100 complete death), 14 days after application
Method in brief: as §3

[17] = test system: lambsquarters (Chenopodium album, CHEAL); assay: as above; details: phytotoxicity rating 0-100 (0 no damage, 100 complete death), 14 days after application
Method in brief: as §3

[18] = test system: ivyleaf morningglory (Ipomoea hederacea, IPOHE); assay: as above; details: phytotoxicity rating 0-100 (0 no damage, 100 complete death), 14 days after application
Method in brief: as §3

[19] = test system: redroot pigweed (Amaranthus retroflexus, AMARE); assay: as above; details: phytotoxicity rating 0-100 (0 no damage, 100 complete death), 14 days after application
Method in brief: as §3

[20] = test system: green foxtail (Setaria viridis, SETVI); assay: as above; details: phytotoxicity rating 0-100 (0 no damage, 100 complete death), 14 days after application
Method in brief: as §3

[21] = test system: field corn (Zea mays L., var. Dekalb 535, CORN); assay: Post-emerge test, crop safety; details: phytotoxicity rating 0-100 (0 no damage, 100 complete death), 14 days after application
Method in brief: as §2

[22] = test system: upland rice (Oryza sp., var. Tebonnet, RICE); assay: Post-emerge test, crop safety; details: phytotoxicity rating 0-100 (0 no damage, 100 complete death), 14 days after application
Method in brief: as §2

Q: Which “Pre-emerge Herbicidal Activity AMARE (phytotoxicity rating, scale 0-100)” value ([1]; 63 g ai/ha) does the source give for `CCOC(=O)COc1c(Cl)cc(F)c(-n2c(=O)cc(C(F)(F)F)n(C)c2=O)c1N` [Compound 1-59] here?
A: Its value is 100.

Q: What about the “Pre-emerge Herbicidal Activity AMARE (phytotoxicity rating, scale 0-100)” value ([1]; 250 g ai/ha) of the same molecule?
A: Its value is 100.

Q: What about the “Pre-emerge crop damage CORN (phytotoxicity rating, scale 0-100)” value ([2]; 63 g ai/ha) of the same molecule?
A: Its value is 30.

Q: And the “Pre-emerge crop damage CORN (phytotoxicity rating, scale 0-100)” value ([2]; 250 g ai/ha)?
A: Its value is 90.

Q: What about the “Pre-emerge crop damage RICE (phytotoxicity rating, scale 0-100)” value ([3]; 63 g ai/ha) of the same molecule?
A: The value was 30.

Q: What about the “Pre-emerge crop damage RICE (phytotoxicity rating, scale 0-100)” value ([3]; 250 g ai/ha) of the same molecule?
A: Its value is 70.

Q: What about the “Pre-emerge Herbicidal Activity DIGSA (phytotoxicity rating, scale 0-100)” value ([4]; 63 g ai/ha) of the same molecule?
A: The value was 30.

Q: And the “Pre-emerge Herbicidal Activity DIGSA (phytotoxicity rating, scale 0-100)” value ([4]; 250 g ai/ha)?
A: The value was 90.

Q: What about the “Pre-emerge Herbicidal Activity SORHA (phytotoxicity rating, scale 0-100)” value ([5]; 63 g ai/ha) of the same molecule?
A: Its value is 30.

Q: What about the “Pre-emerge Herbicidal Activity SORHA (phytotoxicity rating, scale 0-100)” value ([5]; 250 g ai/ha) of the same molecule?
A: The value was 85.

Q: What about the “Pre-emerge Herbicidal Activity CASOB (phytotoxicity rating, scale 0-100)” value ([6]; 63 g ai/ha) of the same molecule?
A: The value was 30.

Q: What about the “Pre-emerge Herbicidal Activity CASOB (phytotoxicity rating, scale 0-100)” value ([6]; 250 g ai/ha) of the same molecule?
A: The value was 80.

Q: And the “Pre-emerge Herbicidal Activity ABUTH (phytotoxicity rating, scale 0-100)” value ([7]; 63 g ai/ha)?
A: Its value is 100.

Q: What about the “Pre-emerge Herbicidal Activity ABUTH (phytotoxicity rating, scale 0-100)” value ([7]; 250 g ai/ha) of the same molecule?
A: Its value is 100.

Q: What about the “Pre-emerge Herbicidal Activity ECHCG (phytotoxicity rating, scale 0-100)” value ([8]; 63 g ai/ha) of the same molecule?
A: The value was 0.

Q: What about the “Pre-emerge Herbicidal Activity ECHCG (phytotoxicity rating, scale 0-100)” value ([8]; 250 g ai/ha) of the same molecule?
A: Its value is 70.

Q: What about the “Pre-emerge Herbicidal Activity CHEAL (phytotoxicity rating, scale 0-100)” value ([9]; 63 g ai/ha) of the same molecule?
A: Its value is 100.

Q: And the “Pre-emerge Herbicidal Activity CHEAL (phytotoxicity rating, scale 0-100)” value ([9]; 250 g ai/ha)?
A: Its value is 100.

Q: What about the “Pre-emerge Herbicidal Activity IPOHE (phytotoxicity rating, scale 0-100)” value ([10]; 63 g ai/ha) of the same molecule?
A: The value was 100.

Q: What about the “Pre-emerge Herbicidal Activity IPOHE (phytotoxicity rating, scale 0-100)” value ([10]; 250 g ai/ha) of the same molecule?
A: Its value is 100.

Q: And the “Pre-emerge Herbicidal Activity SETVI (phytotoxicity rating, scale 0-100)” value ([11]; 63 g ai/ha)?
A: Its value is 30.

Q: And the “Pre-emerge Herbicidal Activity SETVI (phytotoxicity rating, scale 0-100)” value ([11]; 250 g ai/ha)?
A: The value was 90.

Q: What about the “Post-emerge Herbicidal Activity DIGSA” value ([12]; 63 g ai/ha) of the same molecule?
A: The value was 0.

Q: And the “Post-emerge Herbicidal Activity DIGSA” value ([12]; 250 g ai/ha)?
A: The value was 40.

Q: What about the “Post-emerge Herbicidal Activity SORHA” value ([13]; 63 g ai/ha) of the same molecule?
A: The value was 10.

Q: And the “Post-emerge Herbicidal Activity SORHA” value ([13]; 250 g ai/ha)?
A: The value was 50.

Q: What about the “Post-emerge Herbicidal Activity CASOB” value ([14]; 63 g ai/ha) of the same molecule?
A: Its value is 40.

Q: And the “Post-emerge Herbicidal Activity CASOB” value ([14]; 250 g ai/ha)?
A: The value was 100.

Q: And the “Post-emerge Herbicidal Activity ABUTH” value ([15]; 63 g ai/ha)?
A: Its value is 100.

Q: And the “Post-emerge Herbicidal Activity ABUTH” value ([15]; 250 g ai/ha)?
A: Its value is 100.

Q: And the “Post-emerge Herbicidal Activity ECHCG” value ([16]; 63 g ai/ha)?
A: Its value is 30.

Q: And the “Post-emerge Herbicidal Activity ECHCG” value ([16]; 250 g ai/ha)?
A: The value was 80.

Q: What about the “Post-emerge Herbicidal Activity CHEAL” value ([17]; 63 g ai/ha) of the same molecule?
A: The value was 100.

Q: What about the “Post-emerge Herbicidal Activity CHEAL” value ([17]; 250 g ai/ha) of the same molecule?
A: Its value is 100.

Q: What about the “Post-emerge Herbicidal Activity IPOHE” value ([18]; 63 g ai/ha) of the same molecule?
A: The value was 100.

Q: What about the “Post-emerge Herbicidal Activity IPOHE” value ([18]; 250 g ai/ha) of the same molecule?
A: The value was 100.

Q: And the “Post-emerge Herbicidal Activity AMARE” value ([19]; 63 g ai/ha)?
A: Its value is 95.

Q: What about the “Post-emerge Herbicidal Activity AMARE” value ([19]; 250 g ai/ha) of the same molecule?
A: The value was 100.

Q: And the “Post-emerge Herbicidal Activity SETVI” value ([20]; 63 g ai/ha)?
A: The value was 10.

Q: What about the “Post-emerge Herbicidal Activity SETVI” value ([20]; 250 g ai/ha) of the same molecule?
A: Its value is 70.

Q: And the “Post-emerge Herbicidal Activity CORN (crop damage)” value ([21]; 63 g ai/ha)?
A: The value was 45.

Q: What about the “Post-emerge Herbicidal Activity CORN (crop damage)” value ([21]; 250 g ai/ha) of the same molecule?
A: Its value is 80.

Q: What about the “Post-emerge Herbicidal Activity RICE (crop damage)” value ([22]; 63 g ai/ha) of the same molecule?
A: Its value is 30.

Q: What about the “Post-emerge Herbicidal Activity RICE (crop damage)” value ([22]; 250 g ai/ha) of the same molecule?
A: The value was 60.
